The values that follow are results of earlier work, collected in US20070071818A1 (ARDANA BIOSCIENCE LIMITED, priority 2002, published 2007).

Structures can show the parent of a compound that is named as a salt.

One series deals with female sexual response. The settings on record: female sexual dysfunction.
The test system of another series is erectile response. The conditions noted are these: oral administration; psychogenic patient.
The subject of series [1] is female sexual arousal disorder. The conditions noted are these: oral; menopausal women with female sexual arousal disorder.

As to `CCCc1nn(C)c2c(=O)[nH]c(-c3cc(S(=O)(=O)N4CCN(C)CC4)ccc3OCC)nc12` [sildenafil], in the series on female sexual response, the “subjective and physiologic parameters of the female sexual response” value is given as “significantly improve”.
For the compound `CN1CCc2cccc3c2[C@H]1Cc1ccc(O)c(O)c1-3` [apomorphine, (6aR)-5,6,6a,7-Tetrahydro-6-methyl-4H-dibenzo[de,g]quinoline-10,11-diol hydrochloride hemihydrate], the erectile response entry in the series with erectile response is given as “induce an erection”.
With `Cc1ccc(N(CC2=NCCN2)c2cccc(O)c2)cc1` [phentolamine], the “effect across all measures of arousal” value in series [1] is reported as “mild positive effect”.
